From patent US20260240837A1, “Compositions Reducing the Expression or Activity of C1 GALT1 for Treating Ewing Sarcoma” (University of Massachusetts Medical School, priority 2023, published 2026)
Entries after “also recorded” stand apart in the source; their conditions may differ. Residues, ends and D or L forms follow the SMILES beside them. *: point of attachment. Cbz = O=C(OCc1ccccc1)*

Assays:
[1] = test system: EWSR1::FLI1; experiment: qRT-PCR of EWSR1::FLI1 expression in A673 cells; format: cell-based, human; details: compound at 2.5-10 μM for 48 hours, FIGS. 6B-6C
Experimental: (§1) Total RNA was isolated from cells using Trizol (Invitrogen, Cat #15596). cDNA was synthesized using Proto Script II reverse transcription kit (New England Biolabs (NEB), Ipswich, MA, Cat #E6560) and real-time PCR reactions were performed using Quant Studio 3 (Applied Biosystems by Thermo Fisher Scientific) using primer sequences listed in Table 2. Gene expression was normalized to that of GAPDH. A control without reverse transcription (no-RT control) was carried out in parallel to rule out the possibility of DNA contamination. The experiments were performed three independent times.
(§2) In the experiment in FIG. 5D, cells were treated with 10 μM ketoconazole (Sigma, Cat #PHR1385; CAS No. 65277-42-1) for 72 hours. Dimethyl sulfoxide (DMSO) was used as vehicle control.

[2] = test system: EWSR1::FLI1; experiment: Immunoblot of EWSR1::FLI1 protein levels (anti-FLI1 antibody) in A673 cells; format: cell-based, human; details: compound at 2.5-10 μM for 48 hours, FIGS. 6B-6C
Experimental: Cells extracts were prepared in radioimmunoprecipitation assay (RIPA) buffer (1% Triton-X100, 0.1% sodium dodecyl sulfate (SDS), 0.5% deoxycholic acid, 20 mM tris(hydroxymethyl)aminomethane (Tris), pH 7.5, 10% glycerol) containing 1× complete ethylenediaminetetraacetic acid (EDTA)-free protease inhibitor cocktail (Roche, Basel, Switzerland, Cat #11873580001) and 1 mM phenylmethylsulfonyl fluoride (PMSF). For the immunoblot in FIG. 7L, cells expressing FLAG-SMO (wild-type and mutants) were treated with 10 μM MG132 (Selleck Chemicals, Houston, TX, Cat #S2619; CAS No. 1211877-36-9) for 12 hours or 100 nM bafilomycin A1 (Selleck Chemicals, Cat #S1413; CAS No. 88899-55-2) for 6 hours. Total cell lysates (30 μg) were subjected to SDS-polyacrylamide gel electrophoresis (PAGE) and transferred to nitrocellulose membrane, which were blocked with 5% non-fat dry milk, and incubated with the following antibodies overnight at 4° C.: anti-C1GALT1 (1:1000 dilution; Santa Cruz Biotechnology, Dallas, TX, Cat #SC-100745), anti-FLI1 (1:2000 dilution; Abcam, Cambridge, United Kingdom, Cat #ab 133485), anti-EWSR1 (1:1000 dilution; Sigma Aldrich, Cat #HPA051771), anti-GLI1 (1:1000 dilution; Cell Signaling Technology, Danvers, MA, Cat #2553), anti-GLI2 (1:500 dilution; Abcam, Cat #ab187386), anti-PARP1 (1:500 dilution; Santa Cruz Biotechnology, Cat #SC-8007), anti-SMO (1:2000 dilution; Abcam, Cat #ab236465), anti-β-actin (1:2000 dilution; Sigma, Cat #A2228), anti-GAPDH (1:2000 dilution; Abcam, Cat #ab8245) or anti-FLAG M2 (1:1000 dilution; Sigma, Cat #F1804). The blots were imaged by exposing to x-ray film. The experiments were conducted three independent times, and the results from one representative experiment are shown.
as §2

[3] = test system: EWSR1::FLI1/ERG; experiment: qRT-PCR and immunoblot of EWSR1::FLI1/ERG in TC-71, TC-32 and TC-106 cells; format: cell-based, human; details: 48 hours, FIG. 9D
[4] = Animal weight / tolerability in xenograft-bearing mice; details: mice with TC-71, TC-32 or TC-106 xenografts; 100 mg/kg; FIG. 11G
Experimental: A673, TC-71, TC-106, or TC-32 cells (5×10^6) were suspended in PBS and […] ® extracellular matrix (Corning Cat #356234) in a 1:1 ratio, and subcutaneously injected into the right flank of 6-7 week old NOD scid gamma (NSG) immunocompromised mice (n=3 for each vehicle or drug treatment). Tumor dimensions were measured every 3 days with calipers, and the tumor volume was calculated using the formula volume=width^2× length/2.

[5] = test system: SMO; experiment: Immunoblot and qRT-PCR of SMO in A673 cells; format: cell-based, human; details: 100 nM ITZ for 72 hours plus MG132 or BafA1, FIG. 7K
Experimental: as §1
(§3) Cells extracts were prepared in radioimmunoprecipitation assay (RIPA) buffer (1% Triton-X100, 0.1% sodium dodecyl sulfate (SDS), 0.5% deoxycholic acid, 20 mM tris(hydroxymethyl)aminomethane (Tris), pH 7.5, 10% glycerol) containing 1× complete ethylenediaminetetraacetic acid (EDTA)-free protease inhibitor cocktail (Roche, Basel, Switzerland, Cat #11873580001) and 1 mM phenylmethylsulfonyl fluoride (PMSF). For the immunoblot in FIG. 7L, cells expressing FLAG-SMO (wild-type and mutants) were treated with 10 μM MG132 (Selleck Chemicals, Houston, TX, Cat #S2619; CAS No. 1211877-36-9) for 12 hours or 100 nM bafilomycin A1 (Selleck Chemicals, Cat #S1413; CAS No. 88899-55-2) for 6 hours. […]

[6] = test system: FLAG-SMO (T55A) and FLAG-SMO (T500A); experiment: Immunoblot of FLAG-SMO mutants stably expressed in A673 cells; format: cell-based, human; details: 10 μM MG132 for 12 hours or 100 nM bafilomycin A1 for 6 hours, FIG. 7L
Description: To generate cell lines stably ectopically expressing EWSR1::FLI1 (also referred to as EWS-FLI1, EWS::FLI1, or EWSR1-FLI1), TC-71 or NIH 3T3 cells were transduced with the lentiviral expression plasmid pCDH-puro-EWS-FLI1 or, as a control, pCDH-CMV-MCS-EFla-Puro and cells were selected with puromycin for five days. NIH 3T3 cells stably expressing SMO were generated by transduction of pHAGE-SMO or, as a control, pHAGE puro. NIH 3T3 cells stably expressing C1GALT1 were generated by transduction of C1GALT1-expression plasmid EX-W0494-Lv120 or, as a control, EX-EGFP-Lv120. A673 cell lines stably expressing FLAG-tagged wild-type SMO, FLAG-SMO (T55A), or FLAG-SMO (T500A) used lentiviral plasmids synthesized by GenScript in the pGenLenti vector.
Cells extracts were prepared in radioimmunoprecipitation assay (RIPA) buffer (1% Triton-X100, 0.1% sodium dodecyl sulfate (SDS), 0.5% deoxycholic acid, 20 mM tris(hydroxymethyl)aminomethane (Tris), pH 7.5, 10% glycerol) containing 1× complete ethylenediaminetetraacetic acid (EDTA)-free protease inhibitor cocktail (Roche, Basel, Switzerland, Cat #11873580001) and 1 mM phenylmethylsulfonyl fluoride (PMSF). […]

[7] = test system: FLAG-SMO (T55A) and FLAG-SMO (T500A); experiment: Ubiquitination immunoprecipitation assay in A673 cells; format: cell-based, human; details: A673 cells expressing HA-Ub; 10 μM MG132 or 100 nM bafilomycin A1 for 8 hours; FIG. 7M
Experimental: A673 cells stably expressing FLAG-tagged wild-type SMO, FLAG-SMO (T55A) or FLAG-SMO (T500A) were transfected with a plasmid expressing HA-tagged ubiquitin (HA-Ub; Addgene plasmid #18712 (Kamitani et al., 1997) and treated in the presence or absence of 10 μM MG132 for 8 hours or 100 nM bafilomycin A1 for 8 hours. Cell lysates were incubated with either an anti-HA magnetic beads (Sigma, Cat #SAE0197) or anti-FLAG M2 magnetic beads (Sigma, Cat #M8823), and immunoprecipitated proteins were detected using an anti-FLAG M2 (1:1500 dilution; Sigma, Cat #F1804) or anti-HA (1:1500 dilution; Cell Signaling Cat #2367) antibody.

[8] = test system: FLAG-SMO (T55A) and FLAG-SMO (T500A); experiment: Immunoblot of FLAG-SMO mutants stably expressed in TC-71 cells; format: cell-based, human; details: FIG. 9F
Experimental: as §3

[9] = test system: SMO and GLI1; experiment: Immunoblot and qRT-PCR of SMO and GLI1 in NIH 3T3 cells; format: cell-based, mouse; details: FIG. 7E
Experimental: as §1, §3

[10] = test system: EWSR1::FLI1^tdTomato reporter; experiment: Flow cytometry of tdTomato in A673/EWSR1::FLI1^tdTomato/Cas9/EGFP reporter cells; format: cell-based, human; details: 10 μM for 72 hours; FIG. 5D
Experimental: To confirm that knockdown of EWSR1::FLI1 would reduce tdTomato fluorescence, A673/EWSR1::FLI1^tdTomato cells (1×10^5 cells/well in a 6-well plate) were infected with lentiviral particles expressing a non-silencing (NS), EWSR1, or FLI1 short hairpin RNA (shRNA) (Table 3), selected with 2 μg/ml puromycin for 5 days, and analyzed by flow cytometry using a BD LSRII flow cytometer (BD Biosciences). A673/EWSR1::FLI1^tdTomato cells were then infected with lentiviral particles expressing the plasmid lentiCas9-Blast (a gift from Feng Zhang; Addgene plasmid #52962; (Sanjana et al., 2014)) and selected with 3 μg/ml blasticidin for 7 days. Cas9 activity was confirmed by transducing A673/EWSR1::FLI1^tdTomato/Cas9 cells with the lentiviral vector pXPR_011 (a gift from John Doench and David Root; Addgene plasmid #59702; (Doench et al., 2014)), which carries a puromycin resistance marker and includes an enhanced green fluorescent protein (EGFP, also referred to as GFP) reporter gene and an sgRNA sequence specifically targeting the EGFP gene, followed by selection with 2 μg/ml puromycin for 5 days and analysis of EGFP by flow cytometry. Finally, A673/EWSR1::FLI1^tdTomato/Cas9 cells were infected with lentiviral particles expressing the plasmid pLenti CMV EGFP Blast (659-1) (a gift from Eric Campeau and Paul Kaufman; Addgene plasmid #17445 (Campeau et al., 2009)). […]

[11] = biological target: C1GALT1 (Homo sapiens, UniProt Q9NS00); details: previous studies (Lin et al., 2018); cited from earlier work
Sequence of C1GALT1 (Q9NS00 whole entry): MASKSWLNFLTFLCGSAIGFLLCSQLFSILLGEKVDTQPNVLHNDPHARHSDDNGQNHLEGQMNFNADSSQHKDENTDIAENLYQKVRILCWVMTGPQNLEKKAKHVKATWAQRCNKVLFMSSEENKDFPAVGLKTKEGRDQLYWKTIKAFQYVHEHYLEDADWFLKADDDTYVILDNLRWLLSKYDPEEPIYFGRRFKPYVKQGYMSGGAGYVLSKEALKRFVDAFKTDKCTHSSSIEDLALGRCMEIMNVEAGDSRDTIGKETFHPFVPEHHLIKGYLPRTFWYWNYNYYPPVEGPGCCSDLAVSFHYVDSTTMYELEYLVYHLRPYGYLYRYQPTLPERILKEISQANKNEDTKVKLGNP

SMILES: CN(C)c1ccccc1CN1CCCN(Cc2ccccc2N(C)C)C1c1ccncc1 [GANT-61]
- EWSR1::FLI1 mRNA levels [1]: dose-dependent reduction
- EWSR1::FLI1 protein levels [2]: dose-dependent reduction

SMILES: CCC(C)n1ncn(-c2ccc(N3CCN(c4ccc(OCC5COC(Cn6cncn6)(c6ccc(Cl)cc6Cl)O5)cc4)CC3)cc2)c1=O (stereo not shown) [ITZ, itraconazole]
- EWSR1::FLI1/ERG expression [3]: reduced
- animal weight [4]: absence of weight loss

SMILES: CC(C)C[C@@H](C=O)NC(=O)[C@H](CC(C)C)NC(=O)[C@H](CC(C)C)NC(=O)OCc1ccccc1 [MG132] (Cbz-Leu-Leu-Leu-aldehyde)
- reduction in SMO levels observed upon ITZ treatment [5]: reversed
- expression of SMO (T55A) and SMO (T500A) mutant proteins [6]: restored
- ubiquitination of SMO (T55A) and SMO (T500A) [7]: detected
- stability of O-GalNAc-glycosylation-defective SMO mutants [8]: restored

SMILES: CNC1CCC(N(Cc2cccc(-c3ccncc3)c2)C(=O)c2sc3ccccc3c2Cl)CC1.Cl (stereo not shown) [SAG, Smoothened Agonist hydrochloride]
- EWSR1::FLI1 mRNA levels [1]: dose-dependent increase
- EWSR1::FLI1 protein levels [2]: dose-dependent increase
- levels of SMO and GLI1 [9]: increased levels

SMILES: CO/C1=C\C(C)=C\[C@@H](C)[C@@H](O)[C@@H](C)C/C(C)=C/C=C/[C@H](OC)[C@@H]([C@@H](C)[C@@H](O)[C@H](C)[C@@]2(O)C[C@@H](O)[C@H](C)[C@@H](C(C)C)O2)OC1=O [bafilomycin A1]
- reduction in SMO levels observed upon ITZ treatment [5]: reversed
- expression of SMO (T55A) and SMO (T500A) mutant proteins [6]: restored
- ubiquitination of SMO (T55A) and SMO (T500A) [7]: detected
- stability of O-GalNAc-glycosylation-defective SMO mutants [8]: restored

SMILES: CC1=C2C[C@H]3[C@@H](CC=C4C[C@@H](O)CC[C@@]43C)[C@@H]2CC[C@]12O[C@@H]1C[C@H](C)CN[C@H]1[C@H]2C [cyclopamine]
- EWSR1::FLI1 mRNA levels [1]: dose-dependent reduction
- EWSR1::FLI1 protein levels [2]: dose-dependent reduction

SMILES: CC(=O)N1CCN(c2ccc(OCC3COC(Cn4ccnc4)(c4ccc(Cl)cc4Cl)O3)cc2)CC1 (stereo not shown) [ketoconazole]
- EWSR1::FLI1 expression (EWSR1::FLI1^tdTomato reporter) [10]: does not reduce; also recorded: no effect; also recorded: did not result in reduced
- inhibition of C1GALT1 [11]: not to inhibit; also recorded: does not inhibit
